Columns and labels:
Assay in all cases: relative viability (nuclei count vs DMSO), 5 days (fraction); higher = more cells survive
[1] = test system: NCI-H838
In short: (§1)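 Nuclei were stained with Hoechst during a one-step fixation (final 0.05% Triton X-100, 1% formaldehyde, 1 ug/ml Hoechst) carried out 5 days after dosing, then counted on 4× images. The cells, lung cancer lines in 1536-well plates, had been dosed by pin tool the day after seeding with one drug alone or a fixed anchor-drug dose plus five library-drug doses (not always all listed) in √10 steps. Relative viability is the nuclei count in treated wells divided by that in vehicle wells, and each value is the median of duplicate plates.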

[2] = test system: NCI-H1651
In short: as §1

[3] = test system: RERF-LC-KJ
In short: as §1

[4] = test system: SK-MES-1
In short: as §1

[5] = test system: HCC-15
In short: as §1

[6] = test system: BEN
In short: as §1

[7] = test system: NCI-H23
In short: as §1

[8] = test system: NCI-H520
In short: as §1

[9] = test system: H3255
In short: as §1

[10] = test system: NCI-H1650
In short: as §1

[11] = test system: NCI-H650
In short: as §1

[12] = test system: NCI-H1792
In short: as §1

[13] = test system: NCI-H1993
In short: as §1

[14] = test system: NCI-H1395
In short: as §1

[15] = test system: NCI-H2009
In short: as §1

[16] = test system: NCI-H1755
In short: as §1

[17] = test system: SK-LU-1
In short: as §1

[18] = test system: PC-3 [JPC-3]
In short: as §1

[19] = test system: A-427
In short: as §1

[20] = test system: NCI-H727
In short: as §1

[21] = test system: LC-2-ad
In short: as §1

[22] = test system: NCI-H2085
In short: as §1

[23] = test system: NCI-H647
In short: as §1

[24] = test system: LCLC-97TM1
In short: as §1

[25] = test system: NCI-H661
In short: as §1

SMILES: Nc1cccc2c1CN(C1CCC(=O)NC1=O)C2=O (stereo unspecified) [Lenalidomide] + CCNC(=O)c1noc(-c2cc(C(C)C)c(O)cc2O)c1-c1ccc(CN2CCOCC2)cc1 [Luminespib] (partner 0.01 µM)
- relative viability ([1]; first compound 0.253 µM): 0.338
- relative viability ([1]; first compound 0.8 µM): 0.308
- relative viability ([1]; first compound 2.53 µM): 0.269
- relative viability ([1]; first compound 8 µM): 0.4
- relative viability ([2]; first compound 0.253 µM): 0.713
- relative viability ([2]; first compound 0.8 µM): 0.895
- relative viability ([2]; first compound 2.53 µM): 0.987
- relative viability ([2]; first compound 8 µM): 1.03
- relative viability ([3]; first compound 0.253 µM): 1.28
- relative viability ([3]; first compound 0.8 µM): 1.29
- relative viability ([3]; first compound 2.53 µM): 1.12
- relative viability ([3]; first compound 8 µM): 1.32
- relative viability ([4]; first compound 0.253 µM): 0.777
- relative viability ([4]; first compound 0.8 µM): 0.891
- relative viability ([4]; first compound 2.53 µM): 0.886
- relative viability ([4]; first compound 8 µM): 0.863
- relative viability ([5]; first compound 0.253 µM): 0.485
- relative viability ([5]; first compound 0.8 µM): 0.303
- relative viability ([5]; first compound 2.53 µM): 0.359
- relative viability ([5]; first compound 8 µM): 0.363
- relative viability ([6]; first compound 0.253 µM): 0.427
- relative viability ([6]; first compound 0.8 µM): 0.233
- relative viability ([6]; first compound 2.53 µM): 0.607
- relative viability ([6]; first compound 8 µM): 0.246
- relative viability ([7]; first compound 0.253 µM): 0.218
- relative viability ([7]; first compound 0.8 µM): 0.173
- relative viability ([7]; first compound 2.53 µM): 0.196
- relative viability ([7]; first compound 8 µM): 0.228
- relative viability ([8]; first compound 0.253 µM): 0.214
- relative viability ([8]; first compound 0.8 µM): 0.222
- relative viability ([8]; first compound 2.53 µM): 0.218
- relative viability ([8]; first compound 8 µM): 0.267
- relative viability ([9]; first compound 0.253 µM): 0.732
- relative viability ([9]; first compound 0.8 µM): 0.753
- relative viability ([9]; first compound 2.53 µM): 0.915
- relative viability ([9]; first compound 8 µM): 0.876
- relative viability ([10]; first compound 0.8 µM): 0.197
- relative viability ([10]; first compound 2.53 µM): 0.196
- relative viability ([10]; first compound 8 µM): 0.202
- relative viability ([11]; first compound 0.253 µM): 0.905
- relative viability ([11]; first compound 2.53 µM): 0.831
- relative viability ([11]; first compound 8 µM): 0.823
- relative viability ([12]; first compound 0.253 µM): 0.357
- relative viability ([12]; first compound 2.53 µM): 0.449
- relative viability ([12]; first compound 8 µM): 0.495
- relative viability ([13]; first compound 0.253 µM): 0.66
- relative viability ([13]; first compound 0.8 µM): 0.726
- relative viability ([13]; first compound 2.53 µM): 0.767
- relative viability ([13]; first compound 8 µM): 0.743
- relative viability ([14]; first compound 0.253 µM): 0.796
- relative viability ([14]; first compound 0.8 µM): 0.72
- relative viability ([14]; first compound 2.53 µM): 0.855
- relative viability ([14]; first compound 8 µM): 0.615
- relative viability ([15]; first compound 0.253 µM): 1.04
- relative viability ([15]; first compound 0.8 µM): 0.99
- relative viability ([15]; first compound 2.53 µM): 1.09
- relative viability ([15]; first compound 8 µM): 1.11
- relative viability ([16]; first compound 0.253 µM): 0.422
- relative viability ([16]; first compound 0.8 µM): 0.42
- relative viability ([16]; first compound 2.53 µM): 0.596
- relative viability ([16]; first compound 8 µM): 0.655
- relative viability ([17]; first compound 0.253 µM): 0.177
- relative viability ([17]; first compound 0.8 µM): 0.218
- relative viability ([17]; first compound 2.53 µM): 0.198
- relative viability ([17]; first compound 8 µM): 0.226
- relative viability ([18]; first compound 0.253 µM): 0.651
- relative viability ([18]; first compound 0.8 µM): 0.729
- relative viability ([18]; first compound 2.53 µM): 0.616
- relative viability ([18]; first compound 8 µM): 0.572
- relative viability ([19]; first compound 0.253 µM): 0.807
- relative viability ([19]; first compound 0.8 µM): 1
- relative viability ([19]; first compound 2.53 µM): 0.914
- relative viability ([19]; first compound 8 µM): 1.01
- relative viability ([20]; first compound 0.253 µM): 0.45
- relative viability ([20]; first compound 0.8 µM): 0.316
- relative viability ([20]; first compound 2.53 µM): 0.473
- relative viability ([20]; first compound 8 µM): 0.477
- relative viability ([21]; first compound 0.253 µM): 0.912
- relative viability ([21]; first compound 2.53 µM): 1.03
- relative viability ([21]; first compound 8 µM): 1.18
- relative viability ([22]; first compound 0.253 µM): 0.487
- relative viability ([22]; first compound 0.8 µM): 0.487
- relative viability ([22]; first compound 2.53 µM): 0.367
- relative viability ([22]; first compound 8 µM): 0.437
- relative viability ([23]; first compound 0.253 µM): 0.133
- relative viability ([23]; first compound 0.8 µM): 0.284
- relative viability ([23]; first compound 2.53 µM): 0.203
- relative viability ([23]; first compound 8 µM): 0.26
- relative viability ([24]; first compound 0.253 µM): 0.763
- relative viability ([24]; first compound 0.8 µM): 0.707
- relative viability ([24]; first compound 2.53 µM): 0.848
- relative viability ([24]; first compound 8 µM): 0.761
- relative viability ([25]; first compound 0.253 µM): 0.835
- relative viability ([25]; first compound 0.8 µM): 0.864
- relative viability ([25]; first compound 2.53 µM): 0.847
- relative viability ([25]; first compound 8 µM): 0.9
